Measured values: paper PMC4335020, “Single Oral Dose Pharmacokinetics of Decursin and Decursinol Angelate in Healthy Adult Men and Women” (PLoS ONE, 2015)

Assays:
[1] = Stability of D and DA in fresh human whole blood and plasma; assay type: in vitro ADME; settings: 37°C for 1 h, no detectable generation of DOH and other metabolites (data not shown)
Method: To rule out possible artifacts of blood collection, processing and blood-borne esterases, we tested the stability of D and DA in freshly obtained human whole blood and plasma. There was no loss of D and DA in plasma and whole blood after incubation at 37°C for 1 h, with no detectable generation of DOH and other metabolites (data not shown).

[2] = set-up: method as in PMID 24026903; settings: in vitro; cited from earlier work
[3] = tested on: murine colon carcinoma CT-26 cells; set-up: method as in PMID 21170925; settings: daily oral 10 mg/kg for 14 days, 30 minutes prior to CT-26 injection through tail vein; cited from earlier work
[4] = set-up: method as in ref 23 = [23]; 23 Zhang J, Li L, Tang S, Zhang Y, Markiewski M, et al. (2013) Subchronic Toxicological Evaluation of Ethanol Extract of Medicinal Herb Angelica gigas Nakai and its Pyranocoumarin Tissue Distribution; settings: rodents; cited from earlier work
[5] = set-up: method as in ref (9) of IRB protocol; settings: ref (9) of IRB protocol; cited from earlier work
[6] = tested on: cultured prostate and breast cancer cells; set-up: method as in PMID 15705905, PMID 17363485, PMID 17986353; settings: up to 100 μM; cited from earlier work
[7] = tested on: primary cultures of rat cortical cells; set-up: method as in PMID 17637179; settings: as low as 0.1 μmol/L; cited from earlier work
[8] = tested on: human umbilical vein endothelial (HUVEC) cells; set-up: method as in PMID 19307054; settings: 1 μmol/L; cited from earlier work

Structure (SMILES)	loss after incubation in plasma and whole blood [1]	rate of metabolism by human vs mouse and rat liver S9 fraction [2]	formation of tumor nodules in the lungs and lung weight [3]	tissue/plasma ratios [4]	rate of metabolism by human vs mouse and rat liver microsomes [5]	anti-proliferative effect [6]	protective effect on glutamate-injured cells [7]	VEGF-induced proliferation and capillary-tube formation [8]
CC(C)=CC(=O)O[C@H]1Cc2cc3ccc(=O)oc3cc2OC1(C)C [D, decursin]	no loss	metabolized more slowly by human liver S9 fraction	reduced the formation of tumor nodules in the lungs and decreased lung weight	substantially greater than that of DOH	metabolized much slower by human			
C/C=C(/C)C(=O)O[C@H]1Cc2cc3ccc(=O)oc3cc2OC1(C)C [DA, decursinol angelate]	no loss	metabolized more slowly by human liver S9 fraction		substantially greater than that of DOH	metabolized much slower by human			
CC1(C)Oc2cc3oc(=O)ccc3cc2C[C@@H]1O [DOH, decursinol]						little anti-proliferative effect	strong protective effect	significantly inhibited
